Assay results from patent US20040009899A1, “Treating dominant disorders” (priority 2002, published 2004).

Columns and labels:
[1] = tested on: endogenous mouse Hdh allele; assay: Western immunoblot of endogenous mouse htt expression in PNA-treated R6/1 mice; format: in vivo; settings: any tissue examined (striatum, liver), any tested time point (4 or 6 days)
Procedure: Cannulation and microsurgery—method 1: B6CBA, R6/1, and R6/2 mice were obtained from The Jackson Laboratory (Bar Harbor, Me.). Mice were anesthetized via intraperitoneal (i.p.) injection with 100 mg/kg of a ketamine/xylazine solution containing 8 mg/mL ketamine and 1 mg/mL xylazine in 0.9% saline. Once anesthetized, each mouse was cannulated. Each anesthetized mouse was placed in a Stoelting Stereotaxic Frame with a mouse adapter (Stoelting Instruments, Wood Dale, Ill.). An incision was made using a scalpel, and the skin and tissue were pulled back with swabs to reveal the skull. The cannulation site was positioned for optimum access to the ventricle, at coordinates AP −0.2 mm, Horiz −1 mm from bregma. A cannula entry port and two bone screw ports were opened in the skull using a Dremel Flex Shaft Drill (Stoelting Instruments) with a 2.1 mm burr for the guide cannula port and a 0.7 mm burr for the bone screws (Fine Science Tools, Foster City, Calif.). Two 4.0 mm long bone screws (0.85 diameter) were placed far enough into the bone screw ports to fasten securely. […]
Following the treatment period, mice were anesthetized with ether and sacrificed by cervical dislocation. […] Following centrifugation, the supernatants were removed and protein concentrations were quantified by Bradford assays using a BSA standard. […]

GAPDH = assay: Western immunoblot of GAPDH (non-targeted gene) in PNA-treated R6/1 mice; format: in vivo, mouse; settings: any animal tested
Procedure: Following the treatment period, mice were anesthetized with ether and sacrificed by cervical dislocation. Whole brains and livers were removed and placed in 0.9% saline. Striatum tissue was dissected from whole brains, and liver tissue was finely minced. The tissues were placed in separate 2 mL microfuge tubes on dry ice and then suspended in 20 volumes of RIPA buffer (50 mM Tris pH 8, 150 mM NaCl, 1 mM EDTA, 1 mM EGTA, 0.5% sodium deoxycholate, 0.1% SDS, 1% TritonX-100, 2 μg/mL leupeptin, 2 μg/mL aprotinin, 1 μg/mL pepstatin, 1 mM phenylmethylsulfonylfluoride) per gram of tissue. Suspended tissues were homogenized by sonication, and the homogenates were clarified by centrifugation at 12,000×g for 20 minutes at 4° C. Following centrifugation, the supernatants were removed and protein concentrations were quantified by Bradford assays using a BSA standard.
Immunoblotting: Supernatants from the tissue homogenates were mixed with 1/6 volume of 6×SDS sample buffer (350 mM Tris pH 6.8, 10% SDS, 30% glycerol, 15% 2-mercaptoethanol, 0.012% bromophenol blue). Equal amounts of protein were directly loaded onto 10% acrylamide/0.05% bisacrylamide gels without heat denaturation. […] Protein bands were detected on film by chemiluminescence. […]

mice = assay: Toxicity observation (behavior, weight, motor function) during intraventricular PNA treatment; format: in vivo; settings: 1.0 μL (25 μg/μL) into the ventricle every other day
Procedure: Animal treatment and tissue preparation: Aliquots of 1.0 μL (25 μg/μL) of a PNA oligomer specific for the expanded human HD allele (HDs) or a scrambled control PNA (HDscr) were administered into the ventricle every other day by injection via the cannula.

HDscr: scrambled control PNA oligomer, 5′-GCAGCGGCGGTCCT-3′ (SEQ ID NO:4) (all peptide nucleic acid (PNA)) [reference compound]
effect on expression of the endogenous mouse Hdh allele [1]: Neither HDs nor HDscr had any effect | inhibition of non-targeted genes such as GAPDH (GAPDH): No measurable inhibition | toxicity as measured by weight or motor function relative to untreated animals (mice): no effects of toxicity
